These results are taken from patent US8377922B2, “Benzazepinone compound” (Ube Industries, Ltd., priority 2007, dated 2013).

The test system of assay [1] is αvβ6 expressed cells (HT-29 cells). Description: Cell adhesion test of αvβ6 expressed cell. Format: cell-based. The note with it: binding to human fibronectin, read-out: αvβ6 expressed cells adhesion inhibiting IC50 value. As for the experimental part:
The experiment was carried out by partially modifying the method of Goodman et al. (J. Med. Chem., 45, 1045 (2002)).
Human fibronectin (available from CHEMICON) was adjusted to […] with PBS. This was applied on the 96-well plate (MS9586F, available from SUMIRON) with 100 μL/well, coating was carried out at room temperature for 1 hour, and the coating solution was removed and dried. Thereafter, a blocking treatment was carried out with 1.0% BSA dissolved in DMEM for 1 hour, and washed with PBS, and this was used as a coating plate in the adhesion test. HT-29 cells (available from Dainippon Sumitomo Pharma Co., Ltd.) cultured in McCoy's 5A medium containing 10% FBS were detached by using trypsin-ethylenediamine tetraacetic acid, washed with PBS and recovered. Then, the cells were suspended in DMEM to prepare a HT-29 cells suspension. DMEM solution containing the HT-29 cells and a compound to be tested were each added to human fibronectin coating plates each in an amount of 50 μL/well to start the adhesion test.
The adhesion test was carried out in a 5% carbonic acid gas incubator (37° C.) for 2 hours. After completion of the adhesion test, the supernatant was removed by aspiration, and the plates were washed with PBS. Then, Crystal violet staining was carried out, and the number of cells was measured. A concentration (IC50 value) of the compound to be tested necessary for inhibiting 50% of binding to human fibronectin was calculated by using EXSAS (available from Arm Systex Co., Ltd.).

For assay [2], the system named is αvβ3 expressed cells (HUVEC). Description: Cell adhesion test of αvβ3 expressed cell. The note with it: binding to human vitronectin, 50% human serum-containing DMEM, read-out: αvβ3 expressed cells adhesion inhibiting IC50 value. It counts as cell-based. As for the experimental part:
The experiment was carried out by partially modifying the method of Juliano et al. (Exp. Cell Res., 225(1), 132 (1996)).
Human vitronectin (available from CHEMICON) was adjusted to 10 μg/mL with phosphate buffered physiological saline (hereinafter abbreviated as PBS). This was applied onto the 96-well plate (MS9586F, available from SUMIRON) with 100 μL/well, coating was carried out at room temperature for 1 hour, and the coating solution was removed and the plate was dried. Thereafter, blocking treatment was carried out with 1.0% BSA dissolved in Dulbecco's Modified Eagle Medium (hereinafter abbreviated as DMEM) for 1 hour, washed with PBS, and the resulting material was used for the adhesion test as a coating plate. HUVEC (human umbilical endothelial cells) (available from Clonetics Corp.) cultured in endothelian cell basal medium EBM2 (available from Clonetics Corp.) containing EGM-2 SingleQuot Kit suppi. & growth factors EGM2 (available from Clonetics Corp.) and 10% fetal bovine serum (hereinafter abbreviated as FBS) were detached by using trypsin-ethylenediamine tetraacetic acid, washed by using PBS and recovered, and then, suspended in 50% human serum-containing DMEM to prepare cell suspension of HUVEC. […]
The adhesion test was carried out in a 5% carbonic acid gas incubator (37° C.) for 1 hour. […] Crystal violet staining was carried out, and the number of stained cells was measured. […]

The IC50 is the concentration that gives 50% inhibition.

Counter-ions that a name gives are not always drawn.

For `CNc1cccc(CCOc2ccc3c(c2)CN(CC(F)(F)F)C(=O)C(CC(=O)O)C3)n1` (racemic) [Compound A, 8-[2-[6-(methylamino)-pyridin-2-yl]-1-ethoxy]-3-oxo-2-(2,2,2-trifluoroethyl)-2,3,4,5-tetrahydro-1H-2-benz-azepin-4-acetic acid, reference compound], in assay [1], the IC50 is greater than 100000 nM.

Turning to `O=C(O)CC1Cc2ccc(OCCc3cn4c(n3)NCCC4)cc2CN(CC(F)(F)F)C1=O` (stereo not shown) [Example 2, 3-oxo-8-[2-(5,6,7,8-tetrahydroimidazo[1,2-a]pyrimidin-2-yl)ethoxy]-2-(2,2,2-tri-fluoroethyl)-2,3,4,5-tetrahydro-1H-2-benzazepin-4-acetic acid trifluoroacetate], the IC50 turned out to be 61 nM in assay [2] and 441 nM in assay [1].

For `O=C(O)C[C@@H]1Cc2ccc(OCCc3cn4c(n3)NCCC4)cc2CN(CC(F)(F)F)C1=O` [Example 4, (4S)-3-oxo-8-[2-(5,6,7,8-tetrahydroimidazo[1,2-a]pyrimidin-2-yl)ethoxy]-2-(2,2,2-trifluoroethyl)-2,3,4,5-tetrahydro-1H-2-benzazepin-4-acetic acid], the IC50 in assay [1] amounted to 296 nM.
